Test systems include ALL-PO; MOLT-14; KASUMI-2.
Holding throughout (test): selective drug sensitivity score (sDSS, relative to normal bone marrow) (sDSS (score)); higher = more potent and effective on the cell line relative to normal bone marrow cells
What all share (settings): 72 h
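Note: ALL cell lines in 384-well plates, five doses spanning 10,000-fold, each plate scaled between vehicle and 100 µmol/L benzalkonium chloride controls, sDSS an adapted area-under-curve metric.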

For the compound `Cc1[nH]nc(C(F)(F)F)c1Cc1sc2c(c1C(=O)N1C[C@](C)(O)CO1)c(=O)n(C)c(=O)n2C(C)C` [AZD3965] (top concentration 1000 nM), the “selective drug sensitivity score” value is 3.8 with ALL-PO, 0 in the assay with MOLT-14 and 3.8 in the assay on KASUMI-2.
In the case of `Nc1ncnc2c1c(-c1cccc(OCc3ccccc3)c1)cn2[C@H]1C[C@@H](CN2CCC2)C1` [NVP-AEW541] (top concentration 10000 nM), the “selective drug sensitivity score” value was 3.98 in the assay on ALL-PO, -1.62 in the assay with MOLT-14 and -3.62 in the assay on KASUMI-2.
The like results for `CC(=O)O[C@]1(C(C)=O)CC[C@H]2[C@@H]3C=C(C)C4=CC(=O)CC[C@]4(C)[C@H]3CC[C@@]21C` [Megestrol_acetate] (top concentration 10000 nM) were, in that order, 17.9, 0.22 and -0.58.
As to `CCN(CCO)CCCOc1ccc2c(Nc3cc(CC(=O)Nc4cccc(F)c4)[nH]n3)ncnc2c1` [AZD1152-HQPA] (top concentration 1000 nM), the “selective drug sensitivity score” value was determined as 7.64 with ALL-PO, 17.8 with MOLT-14 and 6.44 in the assay on KASUMI-2.
On the same counts, the results for `C[C@H]1C=C2C(=O)O[C@H]3CC[C@@H](C1)[C@@]23O` [Galiellalactone] (top concentration 25000 nM) are -0.34, 5.26 and -0.44.
In the case of `CC(C)[C@H]1C(=O)N[C@@H](CCCNC(=N)N)C(=O)NCC(=O)N[C@@H](CC(=O)O)C(=O)N[C@H](Cc2ccccc2)C(=O)N1C` [Cilengitide] (top concentration 10000 nM), the “selective drug sensitivity score” value with ALL-PO, with MOLT-14 and with KASUMI-2 was 0 throughout.
As for `CN[C@@H]1C[C@H]2O[C@@](C)([C@@H]1OC)n1c3ccccc3c3c4c(c5c6ccccc6n2c5c31)C(=O)N[C@H]4O` [UCN-01] (top concentration 10000 nM), the results for the “selective drug sensitivity score” value in the assay with ALL-PO, with MOLT-14 and in the assay with KASUMI-2 were 8.64, 6.14 and 2.84, respectively.
On the same counts, the results for `CNc1ncc2cc(-c3cc(NC(=O)NCCC(C)(C)C)c(F)cc3C)c(C)nc2n1` (top concentration 10000 nM) are 4.86, 12.5 and 0.36.
On the same counts, the results for `NC1(C(=O)N[C@@H](CCO)c2ccc(Cl)cc2)CCN(c2ncnc3[nH]ccc23)CC1` [AZD-5363] (top concentration 10000 nM) are 5.82, -1.88 and 7.32.
The like results for `Cc1nc(Nc2n[nH]c3c2CN(C(=O)N[C@H](CN(C)C)c2ccccc2)C3(C)C)c2sccc2n1` (top concentration 10000 nM) were, in that order, 5.58, 7.18 and 3.28.
Turning to `CC(C)(C)c1nc(-c2cccc(NS(=O)(=O)c3c(F)cccc3F)c2F)c(-c2ccnc(N)n2)s1` [Dabrafenib] (top concentration 2500 nM), the “selective drug sensitivity score” value in the assay on ALL-PO is -0.22; in the assay with MOLT-14, 1.48; in the assay on KASUMI-2 it was -1.52.
The like results for `C[C@H]1O[C@@H](O[C@H]2[C@@H](O)C[C@H](O[C@H]3[C@@H](O)C[C@H](O[C@H]4CC[C@@]5(C)[C@H](CC[C@@H]6[C@@H]5C[C@@H](O)[C@]5(C)[C@@H](C7=CC(=O)OC7)CC[C@]65O)C4)O[C@@H]3C)O[C@@H]2C)C[C@H](O)[C@@H]1O` [Digoxin] (top concentration 1000 nM) were, in that order, 4, 8 and 5.9.
With `CN[C@@H](C)C(=O)N[C@H](C(=O)N1CCC[C@H]1c1nc(C(=O)c2ccc(F)cc2)cs1)C1CCCCC1` [NVP-LCL161] (top concentration 25000 nM), the “selective drug sensitivity score” value is 0.38 in the assay on ALL-PO, -3.52 in the assay on MOLT-14 and 2.88 with KASUMI-2.
On the same counts, the results for `C[C@@H](Nc1cc(F)cc(F)c1)c1cc(C(=O)N(C)C)cc2c(=O)cc(N3CCOCC3)oc12` [AZD-8186] (top concentration 1000 nM) are 0.34, -0.26 and 7.54.
Take `COCC[n+]1c2c(n(Cc3cnccn3)c1C)C(=O)c1ccccc1C2=O` [Sepantronium_bromide] (top concentration 10000 nM): the “selective drug sensitivity score” value came out at 4.44 with ALL-PO, 12.5 with MOLT-14 and 19.5 with KASUMI-2.
Turning to `NC1(c2ccc(-c3nc4ccn5c(=O)[nH]nc5c4cc3-c3ccccc3)cc2)CCC1` [MK-2206] (top concentration 1000 nM), the “selective drug sensitivity score” value in the assay on ALL-PO is 5.46; in the assay on MOLT-14, -1.64; with KASUMI-2, 6.46.
As for `C[C@H](Nc1ncnc2nc[nH]c12)c1cc2cccc(Cl)c2c(=O)n1-c1ccccc1` [Duvelisib] (top concentration 500 nM), the figures for the “selective drug sensitivity score” value in the assay on ALL-PO, in the assay on MOLT-14 and in the assay with KASUMI-2 were 0.86, -0.94 and 9.86, respectively.
For the compound `C[C@@]1(C(=O)Nc2ccc(F)nc2)CCCN1c1nc(Nc2cc(C3CC3)n[nH]2)c2cccn2n1` (top concentration 10000 nM), the “selective drug sensitivity score” value is 13 with ALL-PO, 12.7 in the assay on MOLT-14 and -6.52 in the assay on KASUMI-2.
In the case of `C[C@@H]1COC(Nc2ccc3ncnc(Nc4ccc(OCc5nccs5)c(Cl)c4)c3c2)=N1` [Varlitinib] (top concentration 10000 nM), the “selective drug sensitivity score” value was 5.12 with ALL-PO, -0.18 in the assay on MOLT-14 and -0.18 in the assay on KASUMI-2.
With `O=C(CCCCCCNC(=O)c1cnc(N(c2ccccc2)c2ccccc2)nc1)NO` [Rocilinostat] (top concentration 10000 nM), the “selective drug sensitivity score” value in the assay on ALL-PO was 5.84; in the assay on MOLT-14, 8.44; in the assay on KASUMI-2, 10.2.
`CO[C@H]1C[C@@H]2CC[C@@H](C)[C@@](O)(O2)C(=O)C(=O)N2CCCC[C@H]2C(=O)O[C@H]([C@H](C)C[C@@H]2CC[C@@H](O)[C@H](OC)C2)CC(=O)[C@H](C)/C=C(\C)[C@@H](O)[C@@H](OC)C(=O)[C@H](C)C[C@H](C)/C=C/C=C/C=C/1C` [Sirolimus] (top concentration 100 nM): the “selective drug sensitivity score” value in the assay on ALL-PO is 0.14; in the assay with MOLT-14, -2.96; with KASUMI-2, 2.84.
The like results for `CC(C)(C)c1cc(NC(=O)Nc2ccc(Oc3ccnc4[nH]c(=O)cnc34)cc2F)n(-c2ccccc2)n1` (top concentration 25000 nM) were, in that order, 5.72, -4.58 and -1.38.
The like results for `CCN(CC)CCNC(=O)c1c(C)[nH]c(/C=C2\C(=O)Nc3ccc(-c4csc(-c5ccccc5)n4)cc32)c1C` [Amcasertib] (top concentration 10000 nM) were, in that order, 6.7, 3.4 and 0.8.
`CC(=O)c1c(C)c2cnc(Nc3ccc(N4CCNCC4)cn3)nc2n(C2CCCC2)c1=O` [Palbociclib] (top concentration 10000 nM): the results for the “selective drug sensitivity score” value in the assay with ALL-PO, with MOLT-14 and with KASUMI-2 were 4.08, 2.48 and 0.88, respectively.
Turning to `CN(C(=O)c1ccc(F)cc1C(F)(F)F)C1CCN(c2nnc(-c3ccnn3C)c3ccccc23)CC1` [Taladegib] (top concentration 10000 nM), the “selective drug sensitivity score” value in the assay on ALL-PO is -0.52; in the assay on MOLT-14, -1.12; with KASUMI-2, 11.
On the same counts, the results for `CCN(CC)CCNC(=O)c1c(C)[nH]c(/C=C2\C(=O)Nc3ccc(F)cc32)c1C` [Sunitinib] (top concentration 1000 nM) are 14.2, 0.76 and -1.44.
With `Nc1ncnc2c1nc(N)n2[C@@H]1O[C@H](CO)[C@@H](O)[C@H]1O` [8-amino-adenosine] (top concentration 50000 nM), the “selective drug sensitivity score” value is 5.48 in the assay on ALL-PO, 5.18 in the assay with MOLT-14 and 6.08 in the assay on KASUMI-2.
On the same counts, the results for `C#Cc1cccc(Nc2ncnc3cc(OCCOC)c(OCCOC)cc23)c1` [Erlotinib] (top concentration 10000 nM) are 5.46, 4.06 and 3.96.
For the compound `O=C(Nc1ccc2[nH]nc(-c3ccncc3)c2c1)[C@@H]1CCN(CC(=O)N2CCN(c3ccc(-c4ncccn4)cc3)CC2)C1` (top concentration 10000 nM), the “selective drug sensitivity score” value is 3.76 in the assay on ALL-PO, 8.56 in the assay with MOLT-14 and 6.16 in the assay with KASUMI-2.
The like results for `C[C@@H]1COCCN1c1cc(C2([S@](C)(=N)=O)CC2)nc(-c2cc[nH]c3nccc2-3)n1` [AZD6738] (top concentration 25000 nM) were, in that order, 4.58, 11.5 and 1.38.
On the same counts, the results for `C=CC(=O)N1CC/C(=C\c2ccc(F)c([N+](=O)[O-])c2)C(=O)/C(=C/c2ccc(F)c([N+](=O)[O-])c2)C1` [VLX1570] (top concentration 10000 nM) are 0.38, -0.92 and -2.62.
